What was measured:
[1] = test system: main crop (wheat, corn, rice, soybean, cotton, oilseed, millet and sorghum); assay: Post-emergence test experiment, main crops (Table 2); format: in vivo; set-up: key: Level 10: completely dead; Level 9: above 90% growth inhibition rate; Level 8: above 80% growth inhibition rate; Level 7: above 70% growth inhibition rate; Level 6: above 60% growth inhibition rate; Level 5: above 50% growth inhibition rate; Level 4: above 30% growth inhibition rate; Level 3: above 20% growth inhibition rate; Level 2: above 10% growth inhibition rate; Level 1: above 1-10% growth inhibition rate; Level 0: no effect; conditions: 30 g/ha, 3 weeks after spraying, greenhouse
In short: (§1)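 Weed and crop seeds (wheat, corn, rice, soybean, cotton, oilseed, millet, sorghum) grown in soil in greenhouse; sprayed at 2-3 leaf stage, 2-3 weeks after sowing, with compound in acetone/Tween 80/water. Effects assessed after 3 weeks further greenhouse culture.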

[2] = test system: Monocotyledonous and dicotyledonous weed; assay: Post-emergence test experiment, weed control effect (Table 2); format: in vivo; set-up: key to weed control effect, Setaria viridis (level) / weed control effect, Rorippa indica (level) / weed control effect, Abutilon theophrasti (level) / weed control effect, Echinochloa crus-galli (level) / weed control effect, Digitaria sanguinalis (level): Level 10: completely dead; Level 9: above 90% growth inhibition rate; Level 8: above 80% growth inhibition rate; Level 7: above 70% growth inhibition rate; Level 6: above 60% growth inhibition rate; Level 5: above 50% growth inhibition rate; Level 4: above 30% growth inhibition rate; Level 3: above 20% growth inhibition rate; Level 2: above 10% growth inhibition rate; Level 1: above 1-10% growth inhibition rate; Level 0: no effect; conditions: 30 g/ha, 3 weeks after spraying, greenhouse
In short: as §1

| SMILES | effect on crop, corn (level) [1] | effect on crop, rice (level) [1] | effect on crop, wheat (level) [1] | weed control effect, Abutilon theophrasti (level) [2] | weed control effect, Bidens pilosa (level) [2] | weed control effect, Digitaria sanguinalis (level) [2] | weed control effect, Echinochloa crus-galli (level) [2] | weed control effect, Rorippa indica (level) [2] | weed control effect, Setaria viridis (level) [2] |
| --- | --- | --- | --- | --- | --- | --- | --- | --- | --- |
| C#CCOCc1c(S(C)(=O)=O)ccc(C(=O)c2c(C3CC3)nn(C)c2OC(=O)c2cn(C)nc2C)c1Cl [Compound 47] | 0 | 3 (Level 3: above 20% growth inhibition rate) | 0 | 7 (Level 7: above 70% growth inhibition rate) | 7 (Level 7: above 70% growth inhibition rate) | 7 (Level 7: above 70% growth inhibition rate) | 10 | 10 | 9 (Level 9: above 90% growth inhibition rate) |
| Cc1nn(C)cc1C(=O)Oc1c(C(=O)c2ccc(S(C)(=O)=O)c(COCC(F)(F)C(F)F)c2Cl)c(C2CC2)nn1C [Compound 48] | 0 | 3 (Level 3: above 20% growth inhibition rate) | 0 | 7 (Level 7: above 70% growth inhibition rate) | 7 (Level 7: above 70% growth inhibition rate) | 7 (Level 7: above 70% growth inhibition rate) | 10 | 10 | 9 (Level 9: above 90% growth inhibition rate) |
| Cc1nn(C)cc1C(=O)Oc1c(C(=O)c2ccc(S(C)(=O)=O)c(COCC(F)(F)F)c2Cl)c(C2CC2)nn1C [Compound 49] | 0 | 3 (Level 3: above 20% growth inhibition rate) | 0 | 7 (Level 7: above 70% growth inhibition rate) | 7 (Level 7: above 70% growth inhibition rate) | 7 (Level 7: above 70% growth inhibition rate) | 10 | 10 | 9 (Level 9: above 90% growth inhibition rate) |
| Cc1nn(C)cc1C(=O)Oc1c(C(=O)c2ccc(S(C)(=O)=O)c(COCC(F)F)c2Cl)c(C2CC2)nn1C [Compound 50] | 0 | 3 (Level 3: above 20% growth inhibition rate) | 0 | 6 (Level 6: above 60% growth inhibition rate) | 7 (Level 7: above 70% growth inhibition rate) | 8 (Level 8: above 80% growth inhibition rate) | 10 | 10 | 9 (Level 9: above 90% growth inhibition rate) |
| COCCCOCc1c(S(C)(=O)=O)ccc(C(=O)c2c(C3CC3)nn(C)c2OC(=O)c2cn(C)nc2C)c1Cl [Compound 52] | 1 (Level 1: above 1-10% growth inhibition rate) | 3 (Level 3: above 20% growth inhibition rate) | 0 | 7 (Level 7: above 70% growth inhibition rate) | 7 (Level 7: above 70% growth inhibition rate) | 7 (Level 7: above 70% growth inhibition rate) | 10 | 10 | 6 (Level 6: above 60% growth inhibition rate) |
| COCCCOCc1c(S(C)(=O)=O)ccc(C(=O)c2cnn(C)c2OC(=O)c2cn(C)nc2C)c1Cl [Compound 53] | 1 (Level 1: above 1-10% growth inhibition rate) | 3 (Level 3: above 20% growth inhibition rate) | 0 | 7 (Level 7: above 70% growth inhibition rate) | 7 (Level 7: above 70% growth inhibition rate) | 8 (Level 8: above 80% growth inhibition rate) | 10 | 10 | 6 (Level 6: above 60% growth inhibition rate) |
| CCOc1c(C(=O)Oc2c(C(=O)c3ccc(S(C)(=O)=O)c(COCC(F)(F)F)c3Cl)cnn2C)cnn1C [Compound 54] | 1 (Level 1: above 1-10% growth inhibition rate) | 3 (Level 3: above 20% growth inhibition rate) | 0 | 7 (Level 7: above 70% growth inhibition rate) | 7 (Level 7: above 70% growth inhibition rate) | 7 (Level 7: above 70% growth inhibition rate) | 10 | 10 | 10 |
| CCOc1c(C(=O)Oc2c(C(=O)c3ccc(S(C)(=O)=O)c(COCC(F)(F)F)c3Cl)c(C)nn2C)cnn1C [Compound 55] | 2 (Level 2: above 10% growth inhibition rate) | 3 (Level 3: above 20% growth inhibition rate) | 0 | 7 (Level 7: above 70% growth inhibition rate) | 7 (Level 7: above 70% growth inhibition rate) | 10 | 10 | 10 | 10 |
| C#CCOCc1c(S(C)(=O)=O)ccc(C(=O)c2c(C)nn(C)c2OC(=O)c2cnn(C)c2OCC)c1Cl [Compound 56] | 0 | 3 (Level 3: above 20% growth inhibition rate) | 0 | 7 (Level 7: above 70% growth inhibition rate) | 7 (Level 7: above 70% growth inhibition rate) | 7 (Level 7: above 70% growth inhibition rate) | 10 | 10 | 9 (Level 9: above 90% growth inhibition rate) |

From patent publication US10556888B2, “Pyrazole compounds or salts thereof, preparation methods therefor, herbicidal compositions and use thereof” (QINGDAO KINGAGROOT CHEMICAL COMPOUNDS CO., LTD, priority 2015, dated 2020)
